# Columns and labels:
# [1] = molecular target: Glycogen synthase kinase-3 alpha (Homo sapiens) (UniProt P49840); assay: Residual activity of GSK3alpha at 10 uM by microplate scintillation counting
# [2] = molecular target: Serine/threonine-protein kinase PAK 4 (Homo sapiens) (UniProt O96013); assay: Residual activity of PAK4 at 1 uM by microplate scintillation counting
# [3] = molecular target: Serine/threonine-protein kinase MARK2 (Homo sapiens) (UniProt Q7KZI7); assay: Residual activity of MARK2 at 1 uM by microplate scintillation counting
# [4] = molecular target: T1, Tyrosine-protein kinase receptor TYRO3 (Homo sapiens) (UniProt Q06418); assay: Residual activity of TYRO3 at 10 uM by microplate scintillation counting
# T1 sequence (whole entry): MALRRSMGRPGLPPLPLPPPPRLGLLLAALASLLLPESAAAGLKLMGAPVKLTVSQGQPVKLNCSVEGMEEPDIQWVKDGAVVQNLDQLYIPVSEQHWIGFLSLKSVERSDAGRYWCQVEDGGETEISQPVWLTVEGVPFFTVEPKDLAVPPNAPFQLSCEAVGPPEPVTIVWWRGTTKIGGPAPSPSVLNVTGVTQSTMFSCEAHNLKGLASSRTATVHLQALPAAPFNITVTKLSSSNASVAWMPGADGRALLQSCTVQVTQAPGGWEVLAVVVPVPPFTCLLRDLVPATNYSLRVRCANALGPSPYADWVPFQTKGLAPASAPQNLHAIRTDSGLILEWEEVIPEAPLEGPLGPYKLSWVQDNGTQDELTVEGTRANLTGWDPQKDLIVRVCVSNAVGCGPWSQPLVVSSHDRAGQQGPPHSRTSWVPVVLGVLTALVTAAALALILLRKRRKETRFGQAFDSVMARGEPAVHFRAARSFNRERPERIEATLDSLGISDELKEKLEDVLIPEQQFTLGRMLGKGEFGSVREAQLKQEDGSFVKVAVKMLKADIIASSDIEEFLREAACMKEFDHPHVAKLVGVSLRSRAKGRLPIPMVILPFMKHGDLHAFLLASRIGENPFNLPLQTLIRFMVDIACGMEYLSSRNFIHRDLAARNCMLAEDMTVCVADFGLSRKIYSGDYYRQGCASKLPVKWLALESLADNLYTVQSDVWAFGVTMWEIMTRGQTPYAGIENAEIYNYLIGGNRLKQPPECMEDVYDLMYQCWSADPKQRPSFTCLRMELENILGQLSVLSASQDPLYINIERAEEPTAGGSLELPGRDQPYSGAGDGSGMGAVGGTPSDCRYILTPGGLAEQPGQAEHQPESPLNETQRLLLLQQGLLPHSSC
# [5] = molecular target: Serine/threonine-protein kinase PAK 6 (Homo sapiens) (UniProt Q9NQU5); assay: Residual activity of PAK6 at 10 uM by microplate scintillation counting
# [6] = molecular target: CDK6/cyclin D1 (Homo sapiens) (UniProt P24385+Q00534); assay: Residual activity of CDK6/Cyclin D1 at 1 uM by microplate scintillation counting; type: protein-complex assay
# [7] = molecular target: Activin receptor type-1-like (Homo sapiens) (UniProt P37023); assay: Residual activity of ACV-RL1 at 0.1 uM by microplate scintillation counting
# [8] = molecular target: CDK9/cyclin T1 (Homo sapiens) (UniProt O60563+P50750); assay: Residual activity of CDK9/Cyclin T at 1 uM by microplate scintillation counting; type: protein-complex assay
# [9] = molecular target: Tyrosine-protein kinase Blk (Homo sapiens) (UniProt P51451); assay: Residual activity of BLK at 1 uM by microplate scintillation counting
# [10] = molecular target: Wee1-like protein kinase (Homo sapiens) (UniProt P30291); assay: Residual activity of WEE1 at 1 uM by microplate scintillation counting
# [11] = molecular target: Myosin light chain kinase 2, skeletal/cardiac muscle (Homo sapiens) (UniProt Q9H1R3); assay: Residual activity of MYLK2 at 1 uM by microplate scintillation counting
# [12] = molecular target: G protein-coupled receptor kinase 5 (Homo sapiens) (UniProt P34947); assay: Residual activity of GRK5 at 0.1 uM by microplate scintillation counting
# [13] = molecular target: T2, Serine/threonine-protein kinase VRK1 (Homo sapiens) (UniProt Q99986); assay: Residual activity of VRK1 at 10 uM by microplate scintillation counting
# T2 sequence (whole entry): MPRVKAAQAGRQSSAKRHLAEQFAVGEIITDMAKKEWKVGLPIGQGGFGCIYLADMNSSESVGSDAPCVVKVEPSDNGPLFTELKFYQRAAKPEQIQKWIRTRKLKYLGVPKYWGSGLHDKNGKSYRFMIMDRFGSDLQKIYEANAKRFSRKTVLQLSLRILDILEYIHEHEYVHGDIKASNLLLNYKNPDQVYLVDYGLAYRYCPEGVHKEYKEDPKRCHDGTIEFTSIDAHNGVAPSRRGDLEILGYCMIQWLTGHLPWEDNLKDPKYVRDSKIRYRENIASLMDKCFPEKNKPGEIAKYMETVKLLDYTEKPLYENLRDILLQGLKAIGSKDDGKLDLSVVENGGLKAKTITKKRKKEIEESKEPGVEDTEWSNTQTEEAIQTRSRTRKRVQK
# [14] = molecular target: T3, Beta-adrenergic receptor kinase 1 (Homo sapiens) (UniProt P25098); assay: Residual activity of GRK2 at 0.1 uM by microplate scintillation counting
# T3 sequence (whole entry): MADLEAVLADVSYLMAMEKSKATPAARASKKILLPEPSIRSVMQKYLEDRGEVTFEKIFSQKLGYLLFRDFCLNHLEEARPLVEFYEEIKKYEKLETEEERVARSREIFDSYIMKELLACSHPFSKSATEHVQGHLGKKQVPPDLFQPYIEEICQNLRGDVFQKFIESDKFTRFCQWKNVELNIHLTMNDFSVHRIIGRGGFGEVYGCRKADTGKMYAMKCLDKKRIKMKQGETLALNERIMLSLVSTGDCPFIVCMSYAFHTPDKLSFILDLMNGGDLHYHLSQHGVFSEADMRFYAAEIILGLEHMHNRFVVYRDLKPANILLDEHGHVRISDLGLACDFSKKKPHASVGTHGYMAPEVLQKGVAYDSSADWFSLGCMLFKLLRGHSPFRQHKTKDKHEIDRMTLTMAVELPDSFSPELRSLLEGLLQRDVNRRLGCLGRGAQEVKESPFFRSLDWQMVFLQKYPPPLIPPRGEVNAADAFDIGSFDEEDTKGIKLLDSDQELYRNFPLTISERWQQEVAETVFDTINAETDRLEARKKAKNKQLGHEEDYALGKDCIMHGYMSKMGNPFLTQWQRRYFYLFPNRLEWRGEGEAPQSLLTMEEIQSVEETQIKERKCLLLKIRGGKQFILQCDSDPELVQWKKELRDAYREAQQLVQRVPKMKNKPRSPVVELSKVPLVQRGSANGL
# Chain of Tyrosine-protein kinase Blk (Homo sapiens) (P51451 2-505 limits assumed): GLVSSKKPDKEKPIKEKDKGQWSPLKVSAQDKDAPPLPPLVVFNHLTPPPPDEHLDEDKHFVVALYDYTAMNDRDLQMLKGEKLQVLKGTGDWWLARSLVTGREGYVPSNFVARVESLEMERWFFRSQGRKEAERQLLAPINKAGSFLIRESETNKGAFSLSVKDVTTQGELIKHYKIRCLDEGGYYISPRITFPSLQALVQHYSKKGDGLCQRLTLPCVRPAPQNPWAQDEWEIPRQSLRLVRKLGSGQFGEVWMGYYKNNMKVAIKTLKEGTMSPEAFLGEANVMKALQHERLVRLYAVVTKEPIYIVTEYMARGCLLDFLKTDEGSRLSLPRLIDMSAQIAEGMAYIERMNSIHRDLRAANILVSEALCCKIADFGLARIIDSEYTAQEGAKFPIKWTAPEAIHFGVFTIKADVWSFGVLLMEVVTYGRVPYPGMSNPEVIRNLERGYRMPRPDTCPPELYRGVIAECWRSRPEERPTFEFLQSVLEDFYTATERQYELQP
# Chain of Serine/threonine-protein kinase PAK 6 (Homo sapiens) (Q9NQU5 whole entry, looked up): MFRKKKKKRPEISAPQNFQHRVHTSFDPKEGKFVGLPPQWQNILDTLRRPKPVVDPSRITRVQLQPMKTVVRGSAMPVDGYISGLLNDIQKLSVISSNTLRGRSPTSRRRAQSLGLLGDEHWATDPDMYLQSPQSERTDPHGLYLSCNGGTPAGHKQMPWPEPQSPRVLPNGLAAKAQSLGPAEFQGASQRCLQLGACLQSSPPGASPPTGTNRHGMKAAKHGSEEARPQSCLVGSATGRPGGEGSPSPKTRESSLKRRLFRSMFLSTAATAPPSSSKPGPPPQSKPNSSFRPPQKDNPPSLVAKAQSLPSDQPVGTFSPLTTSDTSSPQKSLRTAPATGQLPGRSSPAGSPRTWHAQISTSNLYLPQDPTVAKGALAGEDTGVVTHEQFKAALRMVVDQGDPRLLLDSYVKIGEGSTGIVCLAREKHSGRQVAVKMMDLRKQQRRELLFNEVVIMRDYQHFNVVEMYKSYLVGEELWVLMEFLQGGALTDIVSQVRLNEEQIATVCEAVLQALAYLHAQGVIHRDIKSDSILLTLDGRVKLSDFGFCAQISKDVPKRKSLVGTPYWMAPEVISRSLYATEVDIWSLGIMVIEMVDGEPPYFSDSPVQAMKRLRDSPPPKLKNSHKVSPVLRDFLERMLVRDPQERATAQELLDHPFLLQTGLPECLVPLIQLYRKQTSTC
# Chain of Serine/threonine-protein kinase MARK2 (Homo sapiens) (Q7KZI7 whole entry): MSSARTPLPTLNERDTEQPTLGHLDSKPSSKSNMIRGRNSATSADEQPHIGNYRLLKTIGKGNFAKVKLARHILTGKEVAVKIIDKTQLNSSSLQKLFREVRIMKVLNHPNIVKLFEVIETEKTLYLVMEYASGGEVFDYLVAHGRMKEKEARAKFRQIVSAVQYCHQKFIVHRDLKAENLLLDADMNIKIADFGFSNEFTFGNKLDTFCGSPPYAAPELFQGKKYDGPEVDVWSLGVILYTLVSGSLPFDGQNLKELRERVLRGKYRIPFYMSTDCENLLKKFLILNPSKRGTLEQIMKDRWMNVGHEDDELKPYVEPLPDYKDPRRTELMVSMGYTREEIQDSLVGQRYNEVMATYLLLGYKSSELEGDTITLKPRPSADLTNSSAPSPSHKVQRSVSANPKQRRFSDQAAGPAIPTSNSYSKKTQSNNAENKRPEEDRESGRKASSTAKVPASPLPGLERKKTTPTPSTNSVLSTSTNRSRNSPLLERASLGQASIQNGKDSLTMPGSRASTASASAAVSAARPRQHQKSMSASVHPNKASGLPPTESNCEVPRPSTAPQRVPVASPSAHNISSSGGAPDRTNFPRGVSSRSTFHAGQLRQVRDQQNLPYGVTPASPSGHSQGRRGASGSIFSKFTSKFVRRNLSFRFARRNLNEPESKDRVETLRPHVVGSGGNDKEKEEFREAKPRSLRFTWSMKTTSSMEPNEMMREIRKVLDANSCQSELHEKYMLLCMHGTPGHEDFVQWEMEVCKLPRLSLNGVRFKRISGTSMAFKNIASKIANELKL
# Chain of Myosin light chain kinase 2, skeletal/cardiac muscle (Homo sapiens) (Q9H1R3 whole entry): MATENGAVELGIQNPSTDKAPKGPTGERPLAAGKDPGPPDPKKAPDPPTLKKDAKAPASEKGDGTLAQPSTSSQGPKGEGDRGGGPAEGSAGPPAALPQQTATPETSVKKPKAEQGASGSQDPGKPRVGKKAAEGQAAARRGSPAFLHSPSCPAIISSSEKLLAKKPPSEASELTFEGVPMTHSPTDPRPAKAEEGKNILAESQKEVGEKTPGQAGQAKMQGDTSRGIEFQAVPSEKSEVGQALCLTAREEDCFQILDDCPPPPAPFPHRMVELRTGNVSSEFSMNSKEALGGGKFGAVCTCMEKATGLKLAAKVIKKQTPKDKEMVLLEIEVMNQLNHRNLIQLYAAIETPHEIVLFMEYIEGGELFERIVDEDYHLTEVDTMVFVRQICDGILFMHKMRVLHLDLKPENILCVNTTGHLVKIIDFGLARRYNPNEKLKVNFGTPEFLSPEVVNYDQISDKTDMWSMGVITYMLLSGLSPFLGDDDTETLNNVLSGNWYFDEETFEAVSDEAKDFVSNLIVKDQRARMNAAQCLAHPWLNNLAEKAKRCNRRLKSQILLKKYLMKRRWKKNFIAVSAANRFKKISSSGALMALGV
# Chain of Wee1-like protein kinase (Homo sapiens) (P30291 whole entry, looked up): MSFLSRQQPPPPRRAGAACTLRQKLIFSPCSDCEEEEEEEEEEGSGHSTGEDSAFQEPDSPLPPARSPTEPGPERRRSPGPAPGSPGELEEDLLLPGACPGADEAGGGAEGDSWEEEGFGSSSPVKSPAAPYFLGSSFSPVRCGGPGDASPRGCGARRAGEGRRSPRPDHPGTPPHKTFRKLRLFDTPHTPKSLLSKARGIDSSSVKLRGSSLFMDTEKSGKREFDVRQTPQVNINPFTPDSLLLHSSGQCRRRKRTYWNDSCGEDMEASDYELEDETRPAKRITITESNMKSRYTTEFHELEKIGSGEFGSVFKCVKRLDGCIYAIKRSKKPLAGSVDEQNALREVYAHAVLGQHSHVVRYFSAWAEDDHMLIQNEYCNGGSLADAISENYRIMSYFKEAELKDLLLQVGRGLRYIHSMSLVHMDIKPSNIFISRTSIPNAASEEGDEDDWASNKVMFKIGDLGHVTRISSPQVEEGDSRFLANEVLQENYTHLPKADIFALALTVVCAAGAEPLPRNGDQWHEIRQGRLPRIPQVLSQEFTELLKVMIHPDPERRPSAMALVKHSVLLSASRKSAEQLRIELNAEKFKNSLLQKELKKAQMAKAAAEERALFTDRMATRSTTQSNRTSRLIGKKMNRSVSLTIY
# Chain of Glycogen synthase kinase-3 alpha (Homo sapiens) (P49840 2-483 limits assumed): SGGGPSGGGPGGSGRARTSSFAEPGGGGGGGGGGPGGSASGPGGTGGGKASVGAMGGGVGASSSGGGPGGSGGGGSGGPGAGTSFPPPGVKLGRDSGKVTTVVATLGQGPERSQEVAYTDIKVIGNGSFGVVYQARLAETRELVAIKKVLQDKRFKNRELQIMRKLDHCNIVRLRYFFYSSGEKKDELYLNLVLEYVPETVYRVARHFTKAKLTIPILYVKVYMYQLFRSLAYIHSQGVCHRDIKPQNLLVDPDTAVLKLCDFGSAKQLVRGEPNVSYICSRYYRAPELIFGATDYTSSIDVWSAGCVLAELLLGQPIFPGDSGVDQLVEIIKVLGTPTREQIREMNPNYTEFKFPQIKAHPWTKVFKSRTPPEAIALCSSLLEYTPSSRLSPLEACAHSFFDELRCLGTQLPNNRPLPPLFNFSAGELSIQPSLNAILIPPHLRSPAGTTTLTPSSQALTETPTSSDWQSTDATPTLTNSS
# Chain of G protein-coupled receptor kinase 5 (Homo sapiens) (P34947 whole entry, looked up): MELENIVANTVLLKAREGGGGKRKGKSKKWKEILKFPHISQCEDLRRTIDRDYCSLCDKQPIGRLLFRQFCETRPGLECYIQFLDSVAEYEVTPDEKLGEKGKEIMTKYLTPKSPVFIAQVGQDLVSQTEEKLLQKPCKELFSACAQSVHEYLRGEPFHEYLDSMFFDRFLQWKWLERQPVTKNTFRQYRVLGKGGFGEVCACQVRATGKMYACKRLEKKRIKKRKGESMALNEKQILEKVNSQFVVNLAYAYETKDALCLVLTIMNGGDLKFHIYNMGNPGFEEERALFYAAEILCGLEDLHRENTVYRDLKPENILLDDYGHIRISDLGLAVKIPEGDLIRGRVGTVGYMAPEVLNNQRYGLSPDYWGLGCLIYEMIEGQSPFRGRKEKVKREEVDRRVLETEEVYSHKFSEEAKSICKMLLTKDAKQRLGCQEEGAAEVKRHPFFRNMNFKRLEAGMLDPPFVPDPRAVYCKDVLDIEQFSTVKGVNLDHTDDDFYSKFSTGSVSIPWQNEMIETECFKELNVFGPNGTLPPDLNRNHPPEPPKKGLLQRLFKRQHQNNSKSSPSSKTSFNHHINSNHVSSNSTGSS
# Chain of Serine/threonine-protein kinase PAK 4 (Homo sapiens) (O96013 whole entry, looked up): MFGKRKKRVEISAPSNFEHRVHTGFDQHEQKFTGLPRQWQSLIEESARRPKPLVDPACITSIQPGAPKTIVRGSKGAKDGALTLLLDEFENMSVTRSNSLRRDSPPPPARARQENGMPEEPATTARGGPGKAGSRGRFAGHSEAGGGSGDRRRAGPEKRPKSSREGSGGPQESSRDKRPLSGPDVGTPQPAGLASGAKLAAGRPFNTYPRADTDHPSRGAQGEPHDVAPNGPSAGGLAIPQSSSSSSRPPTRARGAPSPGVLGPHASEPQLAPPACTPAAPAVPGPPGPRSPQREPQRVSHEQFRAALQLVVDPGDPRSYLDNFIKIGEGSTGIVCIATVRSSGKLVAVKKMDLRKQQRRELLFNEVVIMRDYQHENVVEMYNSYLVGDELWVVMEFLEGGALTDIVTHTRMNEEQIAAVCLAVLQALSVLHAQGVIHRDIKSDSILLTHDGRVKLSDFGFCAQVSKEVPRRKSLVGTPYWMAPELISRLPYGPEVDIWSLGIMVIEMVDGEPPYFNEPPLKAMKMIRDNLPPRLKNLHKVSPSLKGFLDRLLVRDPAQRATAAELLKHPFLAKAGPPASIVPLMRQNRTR
SMILES,residual activity [1],residual activity [2],residual activity [3],residual activity [4],residual activity [5],residual activity [6],residual activity [7],residual activity [8],residual activity [9],residual activity [10],residual activity [11],residual activity [12],residual activity [13],residual activity [14]
COc1cc2c(Oc3ccc(-c4nc5ccccc5s4)cc3F)ncnc2cc1OCCCN1CCN(C)CC1,27%,99%,87%,17%,57%,100%,92%,92%,58%,101%,99%,86%,126%,89%
COc1cc2c(Oc3ccc(-c4nc5ccccc5s4)cc3)ncnc2cc1OCCCN1CCCC1,62%,112%,86%,120%,95%,104%,96%,93%,64%,84%,140%,86%,135%,95%
COc1cc2c(Oc3ccc(-c4nc5ccccc5s4)cc3)ncnc2cc1OCCCN1CCN(C)CC1,28%,105%,74%,84%,65%,109%,91%,102%,63%,99%,81%,87%,127%,95%

# — ChEMBL document CHEMBL1152560, “Substituted 2-arylbenzothiazoles as kinase inhibitors: hit-to-lead optimization” (Bioorg Med Chem, 2009)
